Laboratory results as given in ChEMBL document CHEMBL4483862, “Open-source discovery of chemical leads for next-generation chemoprotective antimalarials” (2018).

System: Plasmodium berghei
Assay: Luciferase/luciferin-expressing antifolate-resistant parasites were used to infect a culture of HepG2 cells that were pre-incubated with compounds. Infected hepatocytes emit light due to the luciferase reaction. Assay results are presented as the percent inhibition of light emission compared to control. […]
Assay type: functional
Details: sporozoite; for IC90: read-out: LUCIFERASE INFECTION ASSAY - IC90
[1] = read-out: LUCIFERASE INFECTION ASSAY - IC50

Row | SMILES | IC90 [µM] | IC50 [1] [µM] | other results
1 | Cn1nc(-c2ccc(-c3ccnc(SCC(=O)c4ccccc4)n3)s2)cc1C(F)(F)F | > 7.17 |  | IC50 (FFLUC_HILL_SLOPE 0.544, FFLUC_R_SQUARED 0.175, read-out: LUCIFERASE INFECTION ASSAY - IC50): > 7.17 µM
2 | Cc1ccc(C(CN2CCOCC2)NC(=O)c2occc2-c2ccccc2)cc1 (centres undefined) | > 10 |  | IC50 (HEPG2TOX_HILL_SLOPE 140, HEPG2TOX_R_SQUARED 0.302, PBLUC_HILL_SLOPE 0.784, PBLUC_R_SQUARED 0.306, read-out: LUCIFERASE INFECTION ASSAY - IC50): 8.27 µM
3 | Cc1nc2ccccc2n1CCC(=O)Nc1ccc2ccccc2c1 | > 10 |  | IC50 (PBLUC_HILL_SLOPE 2.97, PBLUC_R_SQUARED 0.444, read-out: LUCIFERASE INFECTION ASSAY - IC50): 7.73 µM
4 | Cc1nc(Cc2nc(-c3ccc(S(C)(=O)=O)cc3)cs2)cs1 | > 10 | > 10 | 
5 | CCOc1ccc(C(C)=O)cc1CSc1nnc(-c2ccc(F)cc2)c2ccccc12 | > 10 | > 10 | 
6 | Cc1ccc(N2C(=O)/C(=C/c3ccc(C(C)C)cc3)N=C2SCC(=O)C23CC4CC(CC(C4)C2)C3)cc1 | > 10 |  | IC50 (FFLUC_HILL_SLOPE 28, FFLUC_R_SQUARED 0.571, PBLUC_HILL_SLOPE 16, PBLUC_R_SQUARED 0.0407, read-out: LUCIFERASE INFECTION ASSAY - IC50): 9.9 µM
7 | O=C(NC(c1ccccc1)C1CC1)C1=NN(c2ccccc2)C(=O)CN1 (centres undefined) | 9.85 |  | IC50 (PBLUC_HILL_SLOPE 18.7, PBLUC_R_SQUARED 0.556, read-out: LUCIFERASE INFECTION ASSAY - IC50): 8.76 µM
8 | CC1(C)CCc2cc(/C=N/OC(=O)Nc3ccc(OC(F)(F)F)cc3)ccc2O1 | > 8.08 | > 8.08 | 
9 | O=C1CCC(c2ccccc2)C(=O)/C1=N\Nc1ccc(Cl)cc1 (centres undefined) | > 10.1 | > 10.1 | 
10 | C=CCNC(=S)N1CCc2c([nH]c3ccccc23)C1C(F)(F)F (centres undefined) | > 9.72 | > 9.72 | 
11 | Cc1ccc(S(=O)(=O)N(Cc2ccccc2Cl)c2ccc(Br)cc2C(=O)c2ccccc2)cc1 | > 5.95 |  | IC50 (FFLUC_HILL_SLOPE 4.75, FFLUC_R_SQUARED 0.66, PBLUC_HILL_SLOPE 8.83, PBLUC_R_SQUARED 0.156, read-out: LUCIFERASE INFECTION ASSAY - IC50): 5.41 µM
12 | CN1CCN(/N=C/c2c(-c3ccccc3)n(-c3ccccc3)c3ccccc23)CC1 | > 10 |  | IC50 (PBLUC_HILL_SLOPE 15.1, PBLUC_R_SQUARED 0.218, read-out: LUCIFERASE INFECTION ASSAY - IC50): 9.13 µM
13 | O=C(Nc1ccc(F)c(Cl)c1)c1cc2ccccc2s1 | > 10.8 | > 10.8 | 
14 | CC(C)c1cc(C(C)C)c(S(=O)(=O)Nc2ccc(O)cc2)c(C(C)C)c1 | 3.98 |  | IC50 (FFLUC_HILL_SLOPE 2.79, FFLUC_R_SQUARED 0.606, PBLUC_HILL_SLOPE 11.9, 14.6, PBLUC_R_SQUARED 0.380, 0.737, read-out: LUCIFERASE INFECTION ASSAY - IC50): 3.36 µM
15 | Cc1ccc(NC(=S)NCc2ccccn2)cc1C | > 12.2 | > 12.2 | 
16 | Cc1cc(C)c2cc(C(=O)Nc3ccc(N4CCN(C)CC4)nc3)[nH]c2c1 | 3.64 |  | IC50 (HEPG2TOX_HILL_SLOPE 1.47, HEPG2TOX_R_SQUARED 0.9, PBLUC_HILL_SLOPE 16.4, PBLUC_R_SQUARED 0.482, read-out: LUCIFERASE INFECTION ASSAY - IC50): 3.19 µM
17 | CCN(CC)c1ccc(C(=O)NNS(=O)(=O)c2c(F)cc(F)c(Cl)c2F)cc1 | > 10 |  | IC50 (HEPG2TOX_HILL_SLOPE 9.38, HEPG2TOX_R_SQUARED 0.741, PBLUC_HILL_SLOPE 14.6, PBLUC_R_SQUARED 0.427, read-out: LUCIFERASE INFECTION ASSAY - IC50): 9.22 µM
18 | CCn1c(NC(=O)c2c(C)nn(-c3ccccc3)c2C)nc2ccccc21 | 9.89 |  | IC50 (HEPG2TOX_HILL_SLOPE 11.2, HEPG2TOX_R_SQUARED 0.651, PBLUC_HILL_SLOPE 20.8, PBLUC_R_SQUARED 0.508, read-out: LUCIFERASE INFECTION ASSAY - IC50): 8.9 µM
19 | Cc1ccc(NC(=O)/C(=N/N)c2c(-c3ccccc3)nc3ccccn23)c(Br)c1 | > 10 | > 10 | 
20 | Cc1cccc2nc(C(=O)Nc3ccc4c(c3)nc3n4CCCCC3)cn12 | > 10 |  | IC50 (FFLUC_HILL_SLOPE 1.04, FFLUC_R_SQUARED 0.903, PBLUC_HILL_SLOPE 0.368, PBLUC_R_SQUARED 0.555, read-out: LUCIFERASE INFECTION ASSAY - IC50): 0.159 µM
21 | O=C(O)c1cc(N/N=C(\c2ccncc2)c2ccc([N+](=O)[O-])cc2)cc(C(=O)O)c1 | > 10 | > 10 | 

Row | SMILES | IC90 [µM] | IC50 [1] [µM] | other results
22 | O=C(Nc1ccc([N+](=O)[O-])cc1)n1nccc1-c1ccc(-c2cccs2)s1 | > 8.32 | 7.77 | 
23 | CC(NC(=O)Nc1ccc(C#N)c(Cl)c1)c1cccs1 (centres undefined) | > 10 | > 10 | 
24 | Cc1cccn2c(=O)c(/C=N/O)c(Nc3ccc(SC(F)F)cc3)nc12 | > 10 | > 10 | 
25 | CCc1c(C(=O)/C=C/c2cccc(C#N)c2)oc2ccccc12 | 9.02 |  | IC50 (FFLUC_HILL_SLOPE 2.17, FFLUC_R_SQUARED 0.174, HEPG2TOX_HILL_SLOPE 14.7, HEPG2TOX_R_SQUARED 0.793, PBLUC_HILL_SLOPE 2.78, PBLUC_R_SQUARED 0.439, read-out: LUCIFERASE INFECTION ASSAY - IC50): 4.09 µM
26 | Cc1cccc2sc(N(Cc3ccccc3)C(=O)CSC(c3ccccc3)c3ccccc3)nc12 | > 10 | > 10 | 
27 | CCCn1c(N)c(C(=O)CNc2ccccc2N2CCCCCC2)c(=O)n(C)c1=O | 5.69 |  | IC50 (PBLUC_HILL_SLOPE 99.9, PBLUC_R_SQUARED 0.404, read-out: LUCIFERASE INFECTION ASSAY - IC50): 5.56 µM
28 | O=C(NC1CCCC1)c1ccc(-c2cn3c(-c4ccc(Cl)cc4)cnc3cn2)cc1 | 3.49 |  | IC50 (HEPG2TOX_HILL_SLOPE 3.94, HEPG2TOX_R_SQUARED 0.381, PBLUC_HILL_SLOPE 3.66, PBLUC_R_SQUARED 0.738, read-out: LUCIFERASE INFECTION ASSAY - IC50): 1.91 µM
29 | CCOC(=O)c1c(NC(=O)CNc2ccccc2CN(C)C2CCCCC2)sc(CC)c1C | > 10 |  | IC50 (PBLUC_HILL_SLOPE 1.16, PBLUC_R_SQUARED 0.382, read-out: LUCIFERASE INFECTION ASSAY - IC50): 3.12 µM
30 | O=C(Nc1ccccc1)Nc1cc(NC(=O)Nc2ccccc2)cc(C(F)(F)F)c1 | > 7.96 |  | IC50 (HEPG2TOX_HILL_SLOPE 2.43, HEPG2TOX_R_SQUARED 0.913, read-out: LUCIFERASE INFECTION ASSAY - IC50): > 7.96 µM
31 | CC(C)n1ncc2c(C(=O)Nc3sccc3C#N)cc(C3CC3)nc21 | > 10 |  | IC50 (FFLUC_HILL_SLOPE 1.6, FFLUC_R_SQUARED 0.58, HEPG2TOX_HILL_SLOPE 1.47, HEPG2TOX_R_SQUARED 0.871, PBLUC_HILL_SLOPE 3.01, PBLUC_R_SQUARED 0.133, read-out: LUCIFERASE INFECTION ASSAY - IC50): 5.55 µM
32 | CC(NC(C)c1ccc(Cl)cc1)C(=O)Nc1sccc1C(N)=O (centres undefined) | > 10 |  | IC50 (PBLUC_HILL_SLOPE 1.06, PBLUC_R_SQUARED 0.69, read-out: LUCIFERASE INFECTION ASSAY - IC50): 2.14 µM
33 | CC(C)c1ccc(NC(=O)C2=COC3=NC(=O)N(Cc4cccc(C#N)c4)CCN23)cc1 | 1.27 |  | IC50 (HEPG2TOX_HILL_SLOPE 1.33, HEPG2TOX_R_SQUARED 0.794, PBLUC_HILL_SLOPE 15.4, PBLUC_R_SQUARED 0.591, read-out: LUCIFERASE INFECTION ASSAY - IC50): 1.1 µM
34 | c1csc(-c2cnc3ccc(-c4ccc5c(c4)OCO5)nn23)c1 | > 10 |  | IC50 (HEPG2TOX_HILL_SLOPE 2.2, HEPG2TOX_R_SQUARED 0.859, PBLUC_HILL_SLOPE 2.18, PBLUC_R_SQUARED 0.249, read-out: LUCIFERASE INFECTION ASSAY - IC50): 4.56 µM
35 | COc1cccc(CN2CCN3C(C(=O)Nc4cccc(OC(F)(F)F)c4)=COC3=NC2=O)c1 | > 10 |  | IC50 (HEPG2TOX_HILL_SLOPE 0.751, HEPG2TOX_R_SQUARED 0.867, PBLUC_HILL_SLOPE 2.96, PBLUC_R_SQUARED 0.388, read-out: LUCIFERASE INFECTION ASSAY - IC50): 6.84 µM
36 | Nc1c(C(=O)N2CCOCC2)sc2nc3c(cc12)CCCCC3 | 0.424 |  | IC50 (FFLUC_HILL_SLOPE 2.88, FFLUC_R_SQUARED 0.736, PBLUC_HILL_SLOPE 1.46, PBLUC_R_SQUARED 0.898, read-out: LUCIFERASE INFECTION ASSAY - IC50): 0.0939 µM
37 | COCOc1ccc(-c2cc(-c3cccc(NC(C)=O)c3)cnc2N)cc1 | 5.97 |  | IC50 (PBLUC_HILL_SLOPE 4.33, PBLUC_R_SQUARED 0.629, read-out: LUCIFERASE INFECTION ASSAY - IC50): 3.59 µM
38 | COC(=O)c1ccccc1NC(=O)/C=C/c1ccc(N2CCCS2(=O)=O)cc1 | 6.74 | 2.97 | 
39 | COc1ccc(OC)c(S(=O)(=O)Nc2ccc(S(=O)(=O)Nc3cc(C(F)(F)F)cc(C(F)(F)F)c3)cc2)c1 | > 5.65 | > 5.65 | 
40 | Cc1cccc(Oc2ccc(NC(=O)c3cccc(S(=O)(=O)N(C)C4CCCCC4)c3)cc2)c1 | 9.44 |  | IC50 (FFLUC_HILL_SLOPE 23.3, FFLUC_R_SQUARED 0.81, HEPG2TOX_HILL_SLOPE 1.26, HEPG2TOX_R_SQUARED 0.904, PBLUC_HILL_SLOPE 3.5, PBLUC_R_SQUARED 0.0916, read-out: LUCIFERASE INFECTION ASSAY - IC50): 5.04 µM
41 | CCN(CC)CC(O)COc1cc(C(F)(F)F)ccn1 (centres undefined) | > 11.3 | > 11.3 | 
42 | CCOC(=O)c1c(S(=O)(=O)Nc2ccc(OC(F)(F)F)cc2)c(-c2ccccc2)n(-c2ccccc2)c1C | > 6.06 |  | IC50 (HEPG2TOX_HILL_SLOPE 3.6, HEPG2TOX_R_SQUARED 0.938, PBLUC_HILL_SLOPE 3.83, PBLUC_R_SQUARED 0.0999, read-out: LUCIFERASE INFECTION ASSAY - IC50): 3.44 µM
